According to PMC8124228, “New Hybrids Based on Curcumin and Resveratrol: Synthesis, Cytotoxicity and Antiproliferative Activity against Colorectal Cancer Cells” (Molecules, 2021):
≈ marks a conversion by molar mass, not a printed value. Read-outs that look alike come from different tables or passages of the source.

Key:
tubulin polymerization [1] = system: tubulin polymerization; parameters: method as in PMID 26515041; conditions: evaluated in HCT-116 cells; cited from earlier work
[2] = system: MDA-MB-231/ATCC, PC-3, SNB-75, RPMI-8226, MOLT-4, CCRF-CEM and HS 578T cell lines; parameters: method as in doi:10.1007/s00044-014-1146-2; conditions: mean over cell lines; cited from earlier work
SW480 cells = system: SW480 cells; parameters: method as in doi:10.1007/s00044-018-2202-0; conditions: SW480, 48 h; cited from earlier work
HepG2 cell line = conditions: cited from earlier work
B16-F10 cell line = conditions: cited from earlier work
A549 cell line = conditions: cited from earlier work
tubulin polymerization [3] = conditions: cited from earlier work
[4] = system: non-malignant CHO-K1 cell line; assay: Sulforhodamine B (SRB) cytotoxicity assay, non-malignant cells; format: cell-based; conditions: Cricetulus griseus, mean ± SE
Procedure: (§1) To determine the cytotoxic effect of the synthesized hybrids, they were evaluated against SW480 human colon adenocarcinoma cells, its metastatic derivative SW620 and the non-malignant CHO-K1 cell line, through the sulforhodamine B assay. In this experiment, 5-FU was also included as the reference drug, as well as the parental subunits (curcumin and resveratrol) and the equimolar mixture of these. Cytotoxicity was reported as 50% inhibitory concentration (IC50 values).
(§2) Biological assays were performed using an adenocarcinoma colon cancer cell line (SW480), its metastatic derivative (SW620) and non-malignant cells (CHO-K1). These were obtained from The European Collection of Authenticated Cell Cultures (ECACC, England) and maintained in Dulbecco’s Modified Eagle Medium, supplemented with 10% heat-inactivated (56 °C) horse serum, 1% penicillin/streptomycin and 1% non-essential amino acids (Gibco Invitrogen, Carlsbad, USA). For all experiments, horse serum was reduced to 3%, and the medium was supplemented with […], 5 ng/mL selenium and […] (ITS-defined medium; Gibco, Invitrogen, Carlsbad, CA, USA).
(§3) Cytotoxicity of the synthesized hybrids, lead and reference compounds was evaluated through Sulforhodamine B (SRB) assay, a colorimetric test that is based on staining of total cellular protein of adherent cells. Cells were seeded to a final density of 20,000 cells/well in 96-well tissue culture plates and incubated at 37 °C in a humidified atmosphere at 5% CO2. All cultures were allowed to grow for 24 h, and afterward they were treated with DMSO (vehicle control 1%) or increasing concentrations (0.01–200 µM) of the synthesized hybrids, as well as curcumin and resveratrol (lead compounds), the equimolar mixture of these and 5-fluorouracil (5-FU; the standard drug). After treatment, cells were fixed with trichloroacetic acid (50% v/v) (MERCK) for a period of 1 h at 4 °C. Cell proteins were determined by staining with 0.4% (w/v) SRB (Sigma-Aldrich, United States), and then they were washed with 1% acetic acid for the removal of unbound SRB and left for air-drying. Protein bound SRB was solubilized in 10 mM Tris-base and the absorbance was measured at 492 nm in a microplate reader (Mindray MR-96A). All experiments were performed at least in triplicate.

[5] = system: SW480 human colon adenocarcinoma cells; assay: Sulforhodamine B (SRB) cytotoxicity assay, SW480; format: cell-based; conditions: for SI (selectivity index): IC50 CHO-K1 / IC50 SW480; for IC50: SRB, mean ± SE
Procedure: as §1, §2, §3

[6] = system: SW620 cells (metastatic derivative of SW480); assay: Sulforhodamine B (SRB) cytotoxicity assay, SW620; format: cell-based, human; conditions: for SI (selectivity index): IC50 CHO-K1 / IC50 SW620; for IC50: Homo sapiens, SW-620, SRB, mean ± SE
Procedure: as §1, §2, §3

SW480 cell line = assay: Antiproliferative activity (SRB, 2-8 days), SW480; format: cell-based; conditions: Homo sapiens, vehicle control = 100%, read-out: Viability (%) ± SE; for viability at 10 µM: SW480, 10 µM; for viability at 160 µM: SW480, 160 µM
Procedure: (§4) With the aim of testing the antiproliferative effect of the most cytotoxic and selective hybrids (3e and 3i for SW480 and 3a, 3e and 3k for SW620), they were analyzed through a longer period. According to the results in comparison with the control, it was observed that the activity was time- and concentration-dependent, as evidenced by the decrease in cell viability in the highest concentrations (Table 2). […] Similar results were presented in a previous investigation by Herrera-R et al. (2018), reporting the antiproliferative effect and morphological changes in SW480 cells after treatment with different hybrids using a stilbene moiety, which highlights the potential of this scaffold in the approach to design molecules with potential activity against CRC.
(§5) Briefly, cells were seeded to a final density of 2500 cells/well in 96-well tissue culture plates and incubated in the same conditions described for cytotoxicity. […] Culture media was replaced every 48 h. After each incubation time, cells were fixed, stained and read as previously described for this technique.

SW620 cell line = assay: Antiproliferative activity (SRB, 2-8 days), SW620; format: cell-based, human; conditions: for viability at 10 µM / viability at 160 µM: Homo sapiens, vehicle control = 100%, read-out: Viability (%) ± SE; for viability at 10 µM: SW620, 10 µM; for viability at 160 µM: SW620, 160 µM
Procedure: as §4, §5

[7] = system: LNCaP (human androgen-dependent prostate cancer) cell line; parameters: method as in PMID 26341135; conditions: cited from earlier work
SiHa human cancer cells = system: SiHa human cancer cells; parameters: method as in doi:10.1007/s00044-016-1514-1; conditions: cited from earlier work
[8] = system: MDA-MB-231 human cancer cells; parameters: method as in doi:10.1007/s00044-016-1514-1; conditions: cited from earlier work
[9] = system: PANC-1 human cancer cells; parameters: method as in doi:10.1007/s00044-016-1514-1; conditions: cited from earlier work
[10] = system: A549 human lung cancer cells; parameters: method as in PMID 26174555; conditions: cited from earlier work
[11] = system: H-460 human lung cancer cells; parameters: method as in PMID 26174555; conditions: cited from earlier work
[12] = system: MCF-7 human breast cancer cell line; parameters: method as in PMID 26174555; conditions: cited from earlier work
[13] = system: SKOV-3 ovarian carcinoma cells; parameters: method as in PMID 26174555; conditions: cited from earlier work
[14] = Homo sapiens, SW480, 24 h, 24 h

COc1cc(/C=C/C(=O)/C=C/c2cc(OC)c(OC)c(OC)c2)ccc1CCc1cn(CCN2C(=O)C(=O)c3ccccc32)nn1
inhibition of tubulin polymerization at (concentration) (tubulin polymerization [1]): 1.2 µM

COc1ccc(C2NC(=O)NC(/C=C/c3ccc(O)c(OC)c3)=C2C(=O)/C=C/c2ccc(O)c(OC)c2)cc1 (centres unmarked) [Curcumin–monastrol hybrid]
mean growth percentage (GP) [2]: 88.90

COc1cc(/C=C/c2ccc3ccc(=O)oc3c2)cc(OC)c1O [Figure 1H]
IC50 (SW480 cells): 1010 nM

COc1ccc(/C=C/c2cc(OC)cc(OC)c2/C=C/C(=O)c2ccc(C)c(C)c2)cc1 [Figure 1I]
IC50 (HepG2 cell line): 0.2 µg/mL (≈ 0.467 µM)
IC50 (B16-F10 cell line): 0.1 µg/mL (≈ 0.233 µM)
IC50 (A549 cell line): 1.4 µg/mL (≈ 3.27 µM)
tubulin polymerization inhibitory activity at (concentration) (tubulin polymerization [3]): 2.6 µg/mL

COc1ccc(/C=C/c2ccc(C(=O)/C=C/c3ccc(O)c(OC)c3)cc2)c(OC)c1 [Hybrid 3e, (E)-1-(4-((E)-2,4-Dimethoxystyryl)phenyl)-3-(4-hydroxy-3-methoxyphenyl)prop-2-en-1-one]
IC50 ([4]; 24 h): 100.6 ± 1 µM
IC50 ([4]; 48 h): 43.3 ± 6.84 µM
SI (selectivity index) ([5]; 24 h): 1.85
IC50 [5, 14]: 54.4 ± 6.93 µM
SI (selectivity index) ([6]; 24 h): 1.81
IC50 ([6]; 24 h): 55.5 ± 8 µM
IC50 ([6]; 48 h): 20.4 ± 3.51 µM
viability at 10 µM (SW480 cell line; 48 h, day 2): 53.9 ± 5.3%
viability at 160 µM (SW480 cell line; 48 h, day 2): 32.9 ± 1.3%
viability at 10 µM (SW480 cell line; 96 h, day 4): 2.3 ± 0.3%
viability at 160 µM (SW480 cell line; 96 h, day 4): 0.9 ± 0.2%
viability at 10 µM (SW480 cell line; 144 h, day 6): 3.8 ± 2.7%
viability at 160 µM (SW480 cell line; 144 h, day 6): 0.5 ± 0.2%
viability at 10 µM (SW480 cell line; 192 h, day 8): 5.2 ± 0.3%
viability at 160 µM (SW480 cell line; 192 h, day 8): 0.1 ± 0.1%
viability at 10 µM (SW620 cell line; SW-620, 48 h, day 2): 80.6 ± 4%
viability at 160 µM (SW620 cell line; SW-620, 48 h, day 2): 5 ± 1%
viability at 10 µM (SW620 cell line; SW-620, 96 h, day 4): 11.1 ± 4.2%
viability at 160 µM (SW620 cell line; SW-620, 96 h, day 4): 4.1%
viability at 10 µM (SW620 cell line; SW-620, 144 h, day 6): 4.1 ± 2.2%
viability at 160 µM (SW620 cell line; SW-620, 144 h, day 6): 0%
viability at 10 µM (SW620 cell line; SW-620, 192 h, day 8): 0.6 ± 0.5%
viability at 160 µM (SW620 cell line; SW-620, 192 h, day 8): 0%
reduction in viability (SW620 cell line; SW620, after two days of treatment, concentrations higher than 10 µM): significant reduction in viability
melting point: 78 to 82 °C

COc1cc(/C=C/C(=O)c2ccc(/C=C/c3ccc(OC)c(OC)c3)cc2)ccc1O [Hybrid 3i, (E)-1-(4-((E)-3,4-dimethoxystyryl)phenyl)-3-(4-hydroxy-3-methoxyphenyl)prop-2-en-1-one]
IC50 ([4]; 24 h): 104 ± 5.03 µM
IC50 ([4]; 48 h): 28.3 ± 9.3 µM
SI (selectivity index) ([5]; 24 h): 2.09
IC50 ([5]; 48 h): 11.5 ± 2.78 µM
IC50 [5, 14]: 49.7 ± 4.56 µM
IC50 ([5]; Homo sapiens, SW480, 48 h, 48 h): 11.5 to 29.2 µM
SI (selectivity index) ([6]; 24 h): 1.32
SI (selectivity index) ([6]; 48 h): 0.96
IC50 ([6]; 24 h): 78.9 ± 6.2 µM
IC50 ([6]; 48 h): 29.3 ± 4.73 µM
viability at 10 µM (SW480 cell line; 48 h, day 2): 54.4 ± 7.4%
viability at 160 µM (SW480 cell line; 48 h, day 2): 30.3 ± 8.5%
viability at 10 µM (SW480 cell line; 96 h, day 4): 2 ± 0.2%
viability at 160 µM (SW480 cell line; 96 h, day 4): 1.7 ± 0.1%
viability at 10 µM (SW480 cell line; 144 h, day 6): 1.6 ± 0.2%
viability at 160 µM (SW480 cell line; 144 h, day 6): 0.1 ± 0.1%
viability at 10 µM (SW480 cell line; 192 h, day 8): 1.6 ± 0.3%
viability at 160 µM (SW480 cell line; 192 h, day 8): 0.2 ± 0.1%
melting point: 67 to 70 °C

CCn1ccnc1/C=C/C(=O)/C=C/c1coc2ccccc2c1=O [Hybrid curcum–imidazol]
IC50 [7]: 1000 nM

COc1cc(/C=C/c2ccc(NC(=O)CSc3nnc(-c4cccc(C(F)(F)F)c4)o3)cc2)cc(OC)c1 [Resveratrol–oxadiazole hybrid F]
GI50 (SiHa human cancer cells): < 100 nM
GI50 [8]: < 100 nM
GI50 [9]: < 100 nM

C#CCn1c(=O)c(/C=C/C(=O)CC(=O)/C=C/c2ccc(O)c(OC)c2)cc2cc(C)ccc21 [curcumin–quinolone hybrid]
IC50 [10]: 23.9 µM
IC50 [11]: 21.8 µM
IC50 [12]: 36.2 µM
IC50 [13]: 12.8 µM
